Test results as given in ChEMBL document CHEMBL4689842, “EUbOPEN Chemogenomics Library wave 1” (2021).

Columns and labels:
Type in all cases: toxicity, cell-based
Fibroblast = assay: Incucyte cell viability with human fibroblast; details: 10 µM, compound concentration 10 uM
U2OS = assay: Incucyte cell viability with U2OS; details: human, 10 µM, compound concentration 10 uM
HEK-293T = assay: Incucyte cell viability with HEK293T; details: human, 10 µM, compound concentration 10 uM
[1] = 0 h, replicate number 1, timepoint 0 hours
[2] = 6 h, replicate number 1, timepoint 6 hours
[3] = 12 h, replicate number 1, timepoint 12 hours
[4] = 18 h, replicate number 1, timepoint 18 hours
[5] = 24 h, replicate number 1, timepoint 24 hours
[6] = 12 h, replicate number 2, timepoint 12 hours
[7] = 0 h, replicate number 2, timepoint 0 hours
[8] = 6 h, replicate number 2, timepoint 6 hours
[9] = 18 h, replicate number 2, timepoint 18 hours
[10] = 24 h, replicate number 2, timepoint 24 hours
Further: filed as whole numbers so only -1 and 0 and 1 occur.

| SMILES | Growth Rate (Fibroblast; [1]) | Growth Rate (Fibroblast; [2]) | Growth Rate (Fibroblast; [3]) | Growth Rate (Fibroblast; [4]) | Growth Rate (Fibroblast; [5]) | Growth Rate (U2OS; [2]) | Growth Rate (U2OS; [3]) | Growth Rate (U2OS; [4]) | Growth Rate (U2OS; [5]) | Growth Rate (HEK-293T; [1]) | Growth Rate (HEK-293T; [7]) | Growth Rate (HEK-293T; [8]) | Growth Rate (HEK-293T; [6]) | Growth Rate (HEK-293T; [5]) | Growth Rate (HEK-293T; [2]) | Growth Rate (HEK-293T; [3]) | Growth Rate (HEK-293T; [4]) | Growth Rate (Fibroblast; [9]) | Growth Rate (U2OS; [10]) | Growth Rate (U2OS; [1]) | other results |
| --- | --- | --- | --- | --- | --- | --- | --- | --- | --- | --- | --- | --- | --- | --- | --- | --- | --- | --- | --- | --- | --- |
| CNc1nc(-c2ccc3c(N)n[nH]c3c2)cc(N2C[C@@H](C(=O)NC3CCCCC3)CC[C@H]2C)n1 | 0 | 1 | 0 | 0 | 0 | 1 | 0 | 0 | 0 | 0 | 1 | 0 | 0 | 1 |  |  |  |  |  |  | Growth Rate (U2OS; [6]): 1; Growth Rate (HEK-293T; [9]): 1; Growth Rate (HEK-293T; [10]): 0 |
| Oc1ccc(-c2nc3cc(O)cc(Br)c3o2)cc1 | 0 | 0 |  | 1 | 1 |  | 1 | 1 | 1 | 1 | 0 | 1 | 1 | 0 | 0 | 0 | 1 |  |  |  | Growth Rate (U2OS; [8]): 0; Growth Rate (U2OS; [6]): 0 |
| O=C(Nc1cccnc1)c1cc(-c2ccnc(F)c2)ccc1OCc1ccccc1 | 0 | 0 | 0 | 0 | 0 | 1 | 0 | 0 | 0 | 0 |  | 1 | 1 | 1 |  |  |  | 1 | 1 |  | Growth Rate (Fibroblast; [10]): 1; Growth Rate (U2OS; [7]): 0; Growth Rate (HEK-293T; [10]): 0 |
| CCc1cc2c(c(CC)n1)CCC(=O)N2Cc1ccc(-c2ccccc2-c2nnn[nH]2)cc1.Cl | 0 | 0 | 0 | 0 | 1 | 0 | 0 | 0 | 0 | 0 |  | 0 |  | 1 | 1 | 1 | 1 | 1 | 1 | 1 | Growth Rate (Fibroblast; [8]): 1; Growth Rate (U2OS; [7]): 0; Growth Rate (HEK-293T; [9]): 0 |
| CNc1nc(Nc2cnn([C@H]3CCN(C4COC4)C[C@@H]3F)c2Cl)ncc1C(F)(F)F | 0 |  | 1 | 1 | 0 | 0 | 1 | 1 | 1 | 0 |  |  |  | 0 | 0 | 0 | 0 |  | 0 | 1 | Growth Rate (Fibroblast; [10]): 1; Growth Rate (U2OS; [9]): 0 |
| COc1ccccc1C(=O)Nc1cc2c(cc1N1CCCC1)n(C)c(=O)n2C | 0 | 1 | 1 | 1 | 1 |  |  |  |  | 0 | 1 |  |  | 1 | 0 | 1 | 1 |  |  | 0 | Growth Rate (Fibroblast; [8]): 0; Growth Rate (Fibroblast; [6]): 0 |
| Cc1cc(C(=O)N2Cc3cnn(C)c3Nc3ccccc32)ccc1CNC(=O)N1CCC[C@H]1C(=S)N1CCCN(C)CC1 | 0 | 0 | 1 | 0 | 0 | 0 | 0 | 0 | 0 | 1 | 0 | 1 | 1 | 0 | 0 | 0 | 0 | 1 |  |  | Growth Rate (U2OS; [7]): 0; Growth Rate (U2OS; [6]): 1; Growth Rate (U2OS; [9]): 1 |
| Clc1cc2c(NC3CCCC3)nnc(-c3ccncc3)c2cc1Cl | 0 | 0 | 1 | 1 | 1 | 0 | 1 | 0 | 0 | 1 | 0 |  |  | 1 |  | 1 | 1 |  | 1 | 1 | Growth Rate (U2OS; [8]): 1; Growth Rate (U2OS; [9]): 1 |
| O=C(NC[C@H](O)CN1CCc2ccccc2C1)c1ccnc(NC2CCC2)c1 |  | 0 | 0 | 0 | 1 | 0 | 0 | 0 | 0 | 1 | 0 |  |  |  |  |  |  | 1 | 1 | 1 | Growth Rate (Fibroblast; [7]): 0; Growth Rate (Fibroblast; [6]): 1; Growth Rate (U2OS; [7]): 0; Growth Rate (U2OS; [8]): 1; Growth Rate (U2OS; [6]): 1; Growth Rate (U2OS; [9]): 1; Growth Rate (HEK-293T; [10]): 1 |
| Cn1cc(-c2ccc3occ(-c4ccccc4-c4ccccc4)c3n2)cn1 |  | 1 | 0 | 0 | 0 | 1 | 1 | 0 | 1 | 0 |  | 1 | 0 | 1 |  |  | 1 | 1 |  | 0 | Growth Rate (Fibroblast; [7]): 0; Growth Rate (Fibroblast; [6]): 1; Growth Rate (U2OS; [9]): 1; Growth Rate (HEK-293T; [10]): 0 |
| CN(C)C(=O)c1ccc(-c2cc(C(=O)N(C)C3CCCC3)no2)cc1O | 0 |  | 1 | 1 | 1 | 1 | 1 | 1 | 1 | 0 |  |  | 1 | 1 | 1 | 0 | 1 |  | 0 | 1 | Growth Rate (U2OS; [9]): 0 |
| C[C@H]1CCCN1Cc1nc2cc(NC(=O)c3ccc4cnccc4c3)ccc2[nH]1 | 0 | 0 | 1 | 0 | 0 | 0 | 1 | 1 | 1 | 1 | 0 |  |  | 1 | 0 | 0 | 1 | 1 |  | 0 | Growth Rate (Fibroblast; [10]): 1; Growth Rate (HEK-293T; [10]): 0 |
